Test results taken from patent publication US7186519B2 (priority 2002, dated 2007).
Entries after “also recorded” stand apart in the source; their conditions may differ.

Key:
[1] = system: CT43 cells; assay type: cell-based, Chinese hamster
[2] = system: CT43 cells expressing NPC1-GFP; test: Fluorescence microscopy of BCθ binding in NPC1-GFP transfected cells; conditions: CT43 cells expressing NPC1-GFP exposed to U18666A
Experimental: To examine the effect of NPC1 expression on intracellular BCθ binding to cholesterol in CT43 cells, a construct comprising a GFP-tagged NPC1 protein (NPC1-GFP) was prepared and introduced into CT43 cells by transient transfection. […] After BCθ binding, cells containing NPC1-GFP were viewed in the red channel to detect the BCθ fluorescence signal or in the green channel to detect the NPC1-GFP fluorescence signal. The two fluorescence signals were then merged to examine their degree of overlap.
2-hydroxypropyl-β-cyclodextrin (SIGMA™-Aldrich, St. Louis, Mo.) was added to culture medium using well-known methods (Rothblat, et al. (1999) supra). U18666A was provided to the cells using standard conditions (Lange, et al. (2000) supra; Liscum and Faust (1989) supra).
Transient transfection of NPC1-GFP was performed in CT43 cells using FUGENE™ 6 according to manufacturer's instructions (Roche, Indianapolis, Ind.). Transfected cells were imaged within 2–3 days of transfection.
Cells were grown on glass coverslips in six-well plates and processed for fluorescence studies. […]

[3] = system: 25RA cells; assay type: cell-based, Chinese hamster

## 2-hydroxypropyl-b-cyclodextrin [hpCD]
[1]
  Effect on BCθ fluorescence signal (intracellular cholesterol): both cell lines retained most of the BCθ fluorescence signals; also recorded: retained much of the signal

## CCN(CC)CCO[C@H]1CC[C@@]2(C)C(=CC[C@@H]3[C@@H]2CC[C@]2(C)C(=O)CC[C@@H]32)C1 [U18666A]
[2]
  Effect on binding of BCθ to intracellular cholesterol: binding of BCθ to intracellular cholesterol persisted

## CCCCC[C@@H](O)[C@H]1C(=O)O[C@H](C)[C@@H](O)/C=C/C=C/C=C/C=C/C=C(\C)[C@@H](O)C[C@H](O)C[C@H](O)C[C@H](O)C[C@H](O)C[C@H](O)C[C@@H]1O [filipin]
[3]
  Binding to intracellular cholesterol: not in 25RA cells
[1]
  Binding to intracellular cholesterol: able to bind intracellular cholesterol in CT43 cells
